The source of these data is patent US10975078B2, “Fused indazole pyridone compounds as antivirals” (priority 2017, dated 2021).

The test system of the first experiment is HBsAg secretion, HepG2-Clone42 cells (Tet-inducible HBV-expressing, HBV ayw strain). The experiment in a line: HBsAg assay (HBsAg ELISA, secreted HBV sAg from HepG2-Clone42 cells). It counts as cell-based. Particulars: Hepatitis B virus, read-out: HBsAg (nM), EC50 = concentration at which HBsAg secretion was reduced 50% compared to DMSO control. The procedure:
HepG2-Clone42, a Tet-inducible HBV-expressing cell line with a stably integrated 1.3 mer copy of the HBV ayw strain, was generated based on the Tet-inducible HepAD38 cell line with slight modifications. Ladner S K, et al., Antimicrobial Agents and Chemotherapy. 41(8):1715-1720 (1997). HepG2-Clone42 cells were cultured in DMEM/F-12+Glutamax™ (Life Technologies, Carlsbad, Calif., USA), supplemented with 10% fetal bovine serum (Life Technologies), G-418 (Corning, Manassas, Va., USA) at a final concentration of 0.5 mg/mL, and 5 μg/mL Doxycycline (Sigma, St. Louis, Mo., USA) and maintained in 5% CO2 at 37° C.
HepG2-Clone42 cells were seeded into black clear-bottom 96-well plates at a concentration of 6.0×10^4 cells/well. 24 hours post-seeding, the cells were treated with 200 μl/well of media containing five-fold serial dilutions of compounds in DMSO. DMSO alone was used as the no drug control. The final DMSO concentration in all wells was 0.5%.
The HBsAg ELISA kit (Alpha Diagnostic International, San Antonio, Tex., USE, Catalog #4110) was used to determine the level (semi-quantitative) of secreted HBV sAg. The HBSAg ELISA assay was performed following the manufacturer's protocol as described.
Step 1. Pipet 100 μL each of compound or DMSO treated samples into HBsAg ELISA plates. Seal plates and incubate at room temp for 60 minutes.
Step 2. Aspirate samples and wash three times with Wash Buffer. Dispense 100 μL of antibody-HRP conjugate to each well. Incubate at room temp for 30 minutes.
Step 3. Aspirate samples and wash three times with Wash Buffer. Add 100 μL of TMB Substrate to all wells and incubate 15 minutes at room temp.
Step 4. Dispense 100 μL of Stop Solution to each well. Measure absorbance of ELISA plate at 450 nm.
Dose-response curves were generated and the EC50 value was defined as the compound concentration at which HBsAg secretion was reduced 50% compared to the DMSO control.
EC50 values were determined as follows:
Determine the percent of HBsAg secretion inhibition. Calculate the percent inhibition on of HBsAg secretion inhibition using the following equation: […]
where XC is the absorbance signal from compound-treated well; MB is average absorbance signal (background signal) for column 12 (no cells+HBsAg ELISA sample buffer) and MD is average absorbance signal from DMSO-treated wells. Then calculate EC50 values by non-linear regression using a four parameter curve logistic equation.
The curve fit model employed is XLFit Dose Response One Site Model 204: y=(A+((B−A)/(1+(10^((C−x)*D))))) where A is the minimum y value, B is the maximum y value, C is the log EC50 value, and D is the slope factor. In the following table+≥100 nM; 100 nM>++≥1 nM; 1 nM>+++
As to `CC(C)(C)C1Cn2nc3c(OC[C@H]4CCC(=O)N4)cccc3c2-c2cc(=O)c(C(=O)O)cn21` (single isomer, unassigned) [Example 2.34-I], the EC50 is over 100 nM.
Turning to `COc1ccc2c3n(nc2c1)CC(C(C)(C)C)n1cc(C(=O)O)c(=O)cc1-3` (single isomer, unassigned) [Example 1.2-I, 6-(tert-butyl)-11-methoxy-2-oxo-6,7-dihydro-2H-pyrido[2′,1′:3,4]pyrazino[1,2-b]indazole-3-carboxylic acid], the EC50 lay in the range of 1 to 100 nM.
For `COCCCOc1cccc2c3n(nc12)CC(C(C)(C)C)n1cc(C(=O)O)c(=O)cc1-3` (single isomer, unassigned) [Example 2.1-I, 6-(tert-butyl)-10-(3-methoxypropoxy)-2-oxo-6,7-dihydro-2H-pyrido[2′,1′:3,4]pyrazino[1,2-b]indazole-3-carboxylic Acid], the EC50 was under 1 nM.
Take `COCCCOc1cccc2c3n(nc12)CC(C(C)(C)C)n1cc(C(=O)O)c(=O)cc1-3` (racemic) [Example 2.31, 6-(tert-butyl)-10-(3-methoxypropoxy)-2-oxo-6,7-dihydro-2H-pyrido[2′,1′:3,4]pyrazino[1,2-b]indazole-3-carboxylic Acid]: the EC50 was under 1 nM.
Take `CC(C)(C)C1Cn2nc3c(OC4COC4)cccc3c2-c2cc(=O)c(C(=O)O)cn21` (racemic) [Example 2.26, 6-(tert-butyl)-10-(oxetan-3-yloxy)-2-oxo-6,7-dihydro-2H-pyrido[2′,1′:3,4]pyrazino[1,2-b]indazole-3-carboxylic Acid]: the EC50 fell in the range of 1 to 100 nM.
`CC(C)(C)C1Cn2nc3c(OCCOC(F)(F)F)cccc3c2-c2cc(=O)c(C(=O)O)cn21` (racemic) [Example 2.9, 6-(tert-butyl)-2-oxo-10-(2-(trifluoromethoxy)ethoxy)-6,7-dihydro-2H-pyrido[2′,1′:3,4]pyrazino[1,2-b]indazole-3-carboxylic Acid]: the EC50 is under 1 nM.
Consider `CC[C@H](C)COc1cccc2c3n(nc12)CC(C(C)(C)C)n1cc(C(=O)O)c(=O)cc1-3` (mixture of isomers) [Example 2.6, 6-(tert-butyl)-10-((S)-2-methylbutoxy)-2-oxo-6,7-dihydro-2H-pyrido[2′,1′:3,4]pyrazino[1,2-b]indazole-3-carboxylic Acid], for which the EC50 was under 1 nM.
As for `CN(C)C(=O)COc1cccc2c3n(nc12)CC(C(C)(C)C)n1cc(C(=O)O)c(=O)cc1-3` (racemic) [Example 2.36, 6-(tert-butyl)-10-(2-(dimethylamino)-2-oxoethoxy)-2-oxo-6,7-dihydro-2H-pyrido[2′,1′:3,4]pyrazino[1,2-b]indazole-3-carboxylic Acid], the EC50 was under 1 nM.
With `CC(C)(C)C1Cn2nc3c(OCCO)cccc3c2-c2cc(=O)c(C(=O)O)cn21` (racemic) [Example 2.18, 6-(tert-butyl)-10-(2-hydroxyethoxy)-2-oxo-6,7-dihydro-2H-pyrido[2′,1′:3,4]pyrazino[1,2-b]indazole-3-carboxylic Acid], the EC50 was 1 to 100 nM.
As to `CC(C)(C)C1Cn2nc3c(OCCCS(C)(=O)=O)cccc3c2-c2cc(=O)c(C(=O)O)cn21` (racemic) [Example 2.30, 6-(tert-butyl)-10-(3-(methylsulfonyl)propoxy)-2-oxo-6,7-dihydro-2H-pyrido[2′,1′:3,4]pyrazino[1,2-b]indazole-3-carboxylic Acid], the EC50 is 1 to 100 nM.
Take `CC1(COc2cccc3c4n(nc23)CC(C(C)(C)C)n2cc(C(=O)O)c(=O)cc2-4)COC1` (racemic) [Example 2.45, 6-(tert-butyl)-10-((3-methyloxetan-3-yl)methoxy)-2-oxo-6,7-dihydro-2H-pyrido[2′,1′:3,4]pyrazino[1,2-b]indazole-3-carboxylic Acid]: the EC50 lay in the range of 1 to 100 nM.
For the compound `CC(C)OCCOc1cccc2c3n(nc12)CC(C(C)(C)C)n1cc(C(=O)O)c(=O)cc1-3` (racemic) [Example 2.15, 6-(tert-butyl)-10-(2-isopropoxyethoxy)-2-oxo-6,7-dihydro-2H-pyrido[2′,1′:3,4]pyrazino[1,2-b]indazole-3-carboxylic Acid], the EC50 is under 1 nM.
On to `CC(C)(C)C1Cn2nc3c(OCCCO)cccc3c2-c2cc(=O)c(C(=O)O)cn21` (racemic) [Example 2.17, 6-(tert-butyl)-10-(3-hydroxypropoxy)-2-oxo-6,7-dihydro-2H-pyrido[2′,1′:3,4]pyrazino[1,2-b]indazole-3-carboxylic Acid], for which the EC50 was under 1 nM.
With `CN(C)CCCOc1cccc2c3n(nc12)CC(C(C)(C)C)n1cc(C(=O)O)c(=O)cc1-3` (racemic) [Example 2.43, 6-(tert-butyl)-10-(3-(dimethylamino)propoxy)-2-oxo-6,7-dihydro-2H-pyrido[2′,1′:3,4]pyrazino[1,2-b]indazole-3-carboxylic Acid], the EC50 is over 100 nM.
`CC(C)(C)C1Cn2nc3c(OC4CCC4)cccc3c2-c2cc(=O)c(C(=O)O)cn21` (racemic) [Example 2.29, 6-(tert-butyl)-10-cyclobutoxy-2-oxo-6,7-dihydro-2H-pyrido[2′,1′:3,4]pyrazino[1,2-b]indazole-3-carboxylic Acid]: the EC50 is under 1 nM.
For the compound `COCCOCCOc1cccc2c3n(nc12)CC(C(C)(C)C)n1cc(C(=O)O)c(=O)cc1-3` (racemic) [Example 2.12, 6-(tert-butyl)-10-(2-(2-methoxyethoxy)ethoxy)-2-oxo-6,7-dihydro-2H-pyrido[2′,1′:3,4]pyrazino[1,2-b]indazole-3-carboxylic Acid], the EC50 was in the range of 1 to 100 nM.

The same experiment, now with this note: read-out: HBsAg, EC50 = concentration at which HBsAg secretion was reduced 50% compared to DMSO control.
Turning to `COCC(C)(C)C1Cn2nc3c(OC)cccc3c2-c2cc(=O)c(C(=O)O)cn21` (single isomer, unassigned) [Example 4.1-I, 10-methoxy-6-(1-methoxy-2-methylpropan-2-yl)-2-oxo-6,7-dihydro-2H-pyrido[2′,1′:3,4]pyrazino[1,2-b]indazole-3-carboxylic Acid], the EC50 is under 1 nM.
On the same count and under the same terms, in the case of `COCCOc1cccc2c3n(nc12)C1CCC(C)(C)C1n1cc(C(=O)O)c(=O)cc1-3` (single isomer, unassigned) [Example 6.2-II, 12-(2-methoxyethoxy)-3,3-dimethyl-7-oxo-2,3,3a,14a-tetrahydro-1H,7H-cyclopenta[5,6]pyrido[2′,1′:3,4]pyrazino[1,2-b]indazole-6-carboxylic Acid] it was under 1 nM.
Regarding `COc1cccc2c3n(nc12)C1CCC(C)(C)C1n1cc(C(=O)O)c(=O)cc1-3` (single isomer, unassigned) [Example 5.1-I, 12-methoxy-3,3-dimethyl-7-oxo-2,3,3a,14a-tetrahydro-1H,7H-cyclopenta[5,6]pyrido[2′,1′:3,4]pyrazino[1,2-b]indazole-6-carboxylic Acid], the EC50 is under 1 nM.
Take `CC(C)(C)C1Cn2nc3ccccc3c2-c2cc(=O)c(C(=O)O)cn21` (single isomer, unassigned) [Example 1.5-II, 6-(tert-butyl)-2-oxo-6,7-dihydro-2H-pyrido[2′,1′:3,4]pyrazino[1,2-b]indazole-3-carboxylic acid]: the EC50 was over 100 nM.
For the compound `CC(C)(C)C1Cn2nc3ccccc3c2-c2cc(=O)c(C(=O)O)cn21` (single isomer, unassigned) [Example 1.5-I, 6-(tert-butyl)-2-oxo-6,7-dihydro-2H-pyrido[2′,1′:3,4]pyrazino[1,2-b]indazole-3-carboxylic acid], the EC50 fell in the range of 1 to 100 nM.
With `COCCOc1cccc2c3n(nc12)CC(C(C)(C)C)n1cc(C(=O)O)c(=O)cc1-3` (single isomer, unassigned) [Example 2.2-I, 6-(tert-butyl)-10-(2-methoxyethoxy)-2-oxo-6,7-dihydro-2H-pyrido[2′,1′:3,4]pyrazino[1,2-b]indazole-3-carboxylic Acid], the EC50 was over 100 nM.
As for `CC1(C)CCC2C1n1cc(C(=O)O)c(=O)cc1-c1c3cccc(F)c3nn12` (single isomer, unassigned) [Example 5.2-I, 12-fluoro-3,3-dimethyl-7-oxo-2,3,3a,14a-tetrahydro-1H,7H-cyclopenta[5,6]pyrido[2′,1′:3,4]pyrazino[1,2-b]indazole-6-carboxylic Acid], the EC50 was 1 to 100 nM.
